Assay results reported in PMC12677607, “Identification of a Pair of Linear or Cyclic Naturally Inspired Bifunctional Lipopeptide Antibiotics That Overcome Antimicrobial Resistance” (Advanced Science, 2025).
Values after ≈ are worked out from the molar mass of the structure shown. Bridge positions count the residues as written; N and C are the ends. Square brackets hold non-standard residues; d marks the D form. Peptide text beside a SMILES is read from it. * marks the point of attachment. Octanoyl(3R-OH) = CCCCC[C@@H](O)CC(=O)*; Myristoyl = CCCCCCCCCCCCCC(=O)*; Orn = NCCC[C@H](N)C(=O)O; Dab = NCC[C@H](N)C(=O)O; Dap = NC[C@H](N)C(=O)O

How the values were obtained:
Shigella Castellani LXX = assay: MIC assay (broth micro-dilution); type: cell-based; conditions: Shigella; Table S11; LB broth, 37 °C, 16 h, n = 2
Method: (§1) All MIC assays were performed two independent times (n = 2) in 96‐well plates using a broth micro‐dilution method. The lowest concentration of that inhibited visible microbial growth was recorded as the MIC value.
(§2) For most of bacterial strains, overnight cultures were diluted 5000‐fold in LB broth. For E. faecium and S. aureus, overnight cultures were diluted 1000‐ and 10000‐fold in LB broth, respectively. 100 µL of diluted cells was mixed with 100 µL of LB broth containing each peptide ranging from 64 to 0.125 µg mL^−1 at 2‐fold serial dilutions.

[1] = tested on: Acinetobacter baumannii 1104008; assay: microbe, parasite or virus in culture; type: cell-based; conditions: for MIC (μg/mL) A. baumannii 1104008: 1104008, 16 h
Method: as §1, §2

[2] = tested on: Acinetobacter baumannii ATCC 17978; assay: microbe, parasite or virus in culture; type: cell-based; conditions: Acinetobacter baumannii, ATCC17978; Table S11; LB broth, 37 °C, 16 h, n = 2
Method: as §1, §2

[3] = tested on: Acinetobacter baumannii ATCC 19606; assay: microbe, parasite or virus in culture; type: cell-based; conditions: Acinetobacter baumannii, ATCC19606; Table S11; LB broth, 37 °C, 16 h, n = 2
Method: as §1, §2

[4] = tested on: Acinetobacter baumannii P53; assay: microbe, parasite or virus in culture; type: cell-based; conditions: Acinetobacter baumannii, P53; Table S11; LB broth, 37 °C, 16 h, n = 2
Method: as §1, §2

[5] = tested on: Klebsiella pneumoniae ATCC 13883; assay: microbe, parasite or virus in culture; type: cell-based; conditions: Klebsiella pneumoniae, ATCC13883, 16 h, read-out: MIC Klebsiella pneumoniae ATCC 13883
Method: as §1, §2

[6] = tested on: Klebsiella pneumoniae CRKP 5452; assay: microbe, parasite or virus in culture; type: cell-based; conditions: for MIC (μg/mL) K. pneumoniae CRKP 5452: CRKP 5452, 16 h
Method: as §1, §2

[7] = tested on: Klebsiella pneumoniae CRKP HS11286; assay: microbe, parasite or virus in culture; type: cell-based; conditions: Klebsiella pneumoniae, CRKPHS11286, 16 h, read-out: MIC Klebsiella pneumoniae CRKP HS11286
Method: as §1, §2

[8] = tested on: Klebsiella pneumoniae NCTC 5056; assay: microbe, parasite or virus in culture; type: cell-based; conditions: Klebsiella pneumoniae, NCTC5056, 16 h, read-out: MIC Klebsiella pneumoniae NCTC 5056
Method: as §1, §2

[9] = tested on: Pseudomonas aeruginosa ATCC 9027; assay: microbe, parasite or virus in culture; type: cell-based; conditions: Pseudomonas aeruginosa, ATCC9027; Table S11; LB broth, 37 °C, 16 h, n = 2
Method: as §1, §2

[10] = tested on: Pseudomonas aeruginosa PAO1; assay: microbe, parasite or virus in culture; type: cell-based; conditions: Pseudomonas aeruginosa, PAO1; Table S11; LB broth, 37 °C, 16 h, n = 2
Method: as §1, §2

[11] = tested on: Salmonella enterica ATCC 14028; assay: microbe, parasite or virus in culture; type: cell-based; conditions: Salmonella enterica, ATCC14028, 16 h, read-out: MIC Salmonella enterica ATCC 14028
Method: as §1, §2

[12] = tested on: Salmonella typhimurium LXX; assay: microbe, parasite or virus in culture; type: cell-based; conditions: Salmonella enterica, TYPHIMURIUM, 16 h, read-out: MIC Salmonella typhimurium LXX
Method: as §1, §2

[13] = tested on: Vibrio alginolyticus XSBZ14; assay: microbe, parasite or virus in culture; type: cell-based; conditions: Vibrio alginolyticus, XSBZ14, 16 h, read-out: MIC Vibrio alginolyticus XSBZ14
Method: as §1, §2

[14] = tested on: Staphylococcus aureus USA300; assay: microbe, parasite or virus in culture; type: cell-based; conditions: USA300, 16 h
Method: as §1, §2

[15] = tested on: Streptococcus pyogenes ATCC 19615; assay: microbe, parasite or virus in culture; type: cell-based; conditions: ATCC 19615, 16 h
Method: as §1, §2

[16] = tested on: Candida albicans ATCC 10231; assay: MIC assay (YPD broth); type: cell-based; conditions: ATCC 10231, 16 h
Method: as §1
For fungal strains, overnight cultures were diluted 2000‐fold in YPD broth. 100 µL of diluted cells was mixed with 100 µL of YPD broth containing each peptide ranging from […] 64 to 0.125 µg mL^−1 at 2‐fold serial dilutions.

HeLa cells = assay: Cytotoxicity assay (CCK-8); type: cell-based, human; conditions: 48 h
Method: The cytotoxicity of each synAQU peptide was assessed using a cell counting kit‐8 (CCK‐8) assay. HeLa cells were first seeded in a 96‐well flat‐bottom microtiter plate with a density of ∼5000 cells per well and incubated in the DMEM medium supplemented with 10% FBS at 37 °C with 5% CO2 for 24 h. […] All cytotoxicity experiments were done in triplicate (n = 3) and repeated two independent times (n = 2).

Row | MIC (μg/mL) A. baumannii 1104008 [1] [µg/mL] | MIC (μg/mL) K. pneumoniae CRKP 5452 [6] [µg/mL] | MIC (μg/mL) S. aureus USA300 [14] [µg/mL] | MIC (μg/mL) S. pyogenes ATCC 19615 [15] [µg/mL] | MIC (μg/mL) C. albicans ATCC 10231 [16] [µg/mL] | Compound | MIC (Shigella Castellani LXX) [µg/mL] | MIC ([1]; Acinetobacter baumannii, 1104008, Table S11, LB broth, 37 °C, 16 h, n = 2) [µg/mL] | MIC [2] [µg/mL] | MIC [3] [µg/mL] | MIC [4] [µg/mL] | MIC [5] [µg/mL] | MIC ([6]; Klebsiella pneumoniae, CRKP5452, Table S11, LB broth, 37 °C, 16 h, n = 2) [µg/mL] | MIC [7] [µg/mL] | MIC [8] [µg/mL] | MIC [9] [µg/mL] | MIC [10] [µg/mL] | MIC [11] [µg/mL] | MIC [12] [µg/mL] | MIC [13] [µg/mL] | MIC (μg/mL) Hela (HeLa cells) [µg/mL]
1 | – | – | – | – | – | C[C@@H](O)[C@H]1C(=O)N2C(C(=O)O)=C(S[C@@H]3CN[C@H](C(=O)N(C)C)C3)[C@H](C)[C@H]12 [Meropenem, reference compound] | 0.125 (≈ 0.326 µM) | 16 (≈ 41.7 µM) | 0.25 (≈ 0.652 µM) | 0.5 (≈ 1.3 µM) | 32 (≈ 83.4 µM) | < 0.125 | 16 (≈ 41.7 µM) | 8 (≈ 20.9 µM) | 0.125 (≈ 0.326 µM) | 0.25 (≈ 0.652 µM) | 16 (≈ 41.7 µM) | 0.125 (≈ 0.326 µM) | 0.125 (≈ 0.326 µM) | < 0.125 | –
2 | > 64 | > 64 | > 64 | > 64 | > 64 | CCCCCCCCCCCCCC(=O)N[C@@H](Cc1ccccc1)C(=O)N[C@H]1CCCNC(=O)CNC(=O)[C@H](CCN)NC(=O)[C@@H](Cc2ccc(O)cc2)NC(=O)[C@H](CC(C)C)NC(=O)[C@H]([C@@H](C)CC)NC(=O)[C@@H](C(C)C)NC(=O)[C@H](CCCN)NC1=O [synAQU2-C2] (Myristoyl-F[Orn][Orn][dV]IL[dY][Dab]G; lactam 2-C (inferred)) | – | – | – | – | – | – | – | – | – | – | – | – | – | – | > 64
3 | > 64 | > 64 | > 64 | > 64 | > 64 | CCCCCCCCCCCCCC(=O)N[C@@H](Cc1ccccc1)C(=O)N[C@@H](CCCN)C(=O)N[C@@H](CCCN)C(=O)N[C@@H](C(=O)N[C@H](C(=O)N[C@@H](CC(C)C)C(=O)N[C@H](Cc1ccc(O)cc1)C(=O)N[C@@H](CCN)C(=O)NCC(=O)O)[C@@H](C)CC)C(C)C [synAQU2-L] (Myristoyl-F[Orn][Orn][dV]IL[dY][Dab]G-OH) | – | – | – | – | – | – | – | – | – | – | – | – | – | – | > 64
4 | > 64 | > 64 | > 64 | > 64 | > 64 | CCCCC[C@@H](O)CC(=O)N[C@H]1CNC(=O)[C@H](CC(=O)O)NC(=O)[C@H](C(C)C)NC(=O)[C@@H](CC(C)C)NC(=O)[C@H](CN)NC(=O)[C@@H](Cc2ccccc2)NC(=O)[C@H]([C@@H](C)O)NC(=O)[C@H](CCN)NC(=O)[C@H](Cc2ccccc2)NC1=O [synAQU3-C1] ({Octanoyl(3R-OH)}-[Dap]F[Dab]T[dF][Dap][dL]VD; lactam 1-C (inferred)) | – | – | – | – | – | – | – | – | – | – | – | – | – | – | > 64
